Assay results taken from ChEMBL document CHEMBL4814023, “The dual inhibition against the activity and expression of tyrosine phosphatase PRL-3 from a rhodanine derivative” (Bioorg Med Chem Lett, 2021).
Active and inactive are the calls of the source. The rule behind the calls is not given here.

Experiments:
HCT-116 [1] = test: cells; details: Homo sapiens
SW480 [2] = test: cells; details: Homo sapiens
SW480 [3] = test: Antiproliferative activity against human SW480 cells assessed as reduction in cell viability at 1 to 100 uM incubated for 24 to 72 hrs by MTT assay; assay type: functional, cell-based; details: dose 1-100 µM, time 24-72 hrs
HCT-116 [4] = test: Antiproliferative activity against human HCT116 cells assessed as reduction in cell viability at 1 to 100 uM incubated for 24 to 72 hrs by MTT assay; assay type: functional, cell-based; details: dose 1-100 µM, time 24-72 hrs
[5] = target: T1, Protein tyrosine phosphatase type IVA 3 (Homo sapiens, UniProt O75365); test: Inhibition of human brain PRL-3 (1 to 168 residues) expressed in Escherichia coli BL21(DE3) cells using DiFMUP as substrate incubated for 1 hr by fluorimetric assay
SW480 [6] = test: Effect on SHP-2 expression in human SW480 cells at 5 to 50 uM by Western blot analysis; assay type: functional, cell-based; details: dose 5-50 µM
SW480 [7] = test: Induction of apoptosis in human SW480 cells assessed as early apoptotic cells at 25 uM incubated for 24 hrs by Annexin V-FITC/propidium iodide staining based flow cytometry analysis (reference value: 0.52%); assay type: functional
SW480 [8] = test: Induction of apoptosis in human SW480 cells assessed as change in cell shape at 5 to 50 uM after 24 hrs by AO/EB staining based fluorescence inverted microscopic method; assay type: functional; details: dose 5-50 µM
SW480 [9] = test: Induction of apoptosis in human SW480 cells assessed as late apoptotic cells at 5 uM incubated for 24 hrs by Annexin V-FITC/propidium iodide staining based flow cytometry analysis (reference value: 2.58%); assay type: functional
SW480 [10] = test: Induction of apoptosis in human SW480 cells assessed as early apoptotic cells at 10 uM incubated for 24 hrs by Annexin V-FITC/propidium iodide staining based flow cytometry analysis (reference value: 0.52%); assay type: functional
SW480 [11] = test: Induction of apoptosis in human SW480 cells assessed as late apoptotic cells at 50 uM incubated for 24 hrs by Annexin V-FITC/propidium iodide staining based flow cytometry analysis (reference value: 2.58%); assay type: functional
SW480 [12] = test: Induction of apoptosis in human SW480 cells assessed as late apoptotic cells at 10 uM incubated for 24 hrs by Annexin V-FITC/propidium iodide staining based flow cytometry analysis (reference value: 2.58%); assay type: functional
SW480 [13] = test: Effect on SHP-1 expression in human SW480 cells at 5 to 50 uM by Western blot analysis; assay type: functional, cell-based; details: dose 5-50 µM
SW480 [14] = test: Induction of apoptosis in human SW480 cells assessed as late apoptotic cells at 25 uM incubated for 24 hrs by Annexin V-FITC/propidium iodide staining based flow cytometry analysis (reference value: 2.58%); assay type: functional
SW480 [15] = test: Induction of apoptosis in human SW480 cells assessed as early apoptotic cells at 50 uM incubated for 24 hrs by Annexin V-FITC/propidium iodide staining based flow cytometry analysis (reference value: 0.52%); assay type: functional
SW480 [16] = test: Antiproliferative activity against human SW480 cells assessed as reduction in cell viability incubated for 24 to 72 hrs by MTT assay; details: dose 1-100 µM, time 24-72 hrs
SW480 [17] = test: Antiproliferative activity against human SW480 cells assessed as reduction in cell viability at 1 to 100 uM by MTT assay; assay type: functional, cell-based; details: dose 1-100 µM, time 24-72 hrs, TDE = time-dependent effect
SW480 [18] = test: Down regulation of PRL-3 expression in human SW480 cells by Western blot analysis; assay type: functional, cell-based; details: dose 5-50 µM
SW480 [19] = test: Induction of apoptosis in human SW480 cells assessed as early apoptotic cells at 5 uM incubated for 24 hrs by Annexin V-FITC/propidium iodide staining based flow cytometry analysis (reference value: 0.52%); assay type: functional
SW480 [20] = test: Induction of apoptosis in human SW480 cells assessed as decrease in number of cells at 5 to 50 uM after 24 hrs by AO/EB staining based fluorescence inverted microscopic method; assay type: functional, cell-based; details: dose 5-50 µM
SW480 [21] = test: Effect on TCPTP expression in human SW480 cells at 5 to 50 uM by Western blot analysis; assay type: functional, cell-based; details: dose 5-50 µM
SW480 [22] = test: Effect on PTP1B expression in human SW480 cells at 5 to 50 uM by Western blot analysis; assay type: functional, cell-based; details: dose 5-50 µM
SW480 [23] = test: Induction of apoptosis in human SW480 cells assessed as increase in number of cells with red dye at 5 to 50 uM after 24 hrs by AO/EB staining based fluorescence inverted microscopic method; assay type: functional, cell-based; details: dose 5-50 µM
[24] = target: T1, Protein tyrosine phosphatase type IVA 3; test: Inhibition of PRL-3 (unknown origin) using DiFMUP as substrate incubated for 1 hr

T1 sequence (O75365 whole entry, the tested form may be a part): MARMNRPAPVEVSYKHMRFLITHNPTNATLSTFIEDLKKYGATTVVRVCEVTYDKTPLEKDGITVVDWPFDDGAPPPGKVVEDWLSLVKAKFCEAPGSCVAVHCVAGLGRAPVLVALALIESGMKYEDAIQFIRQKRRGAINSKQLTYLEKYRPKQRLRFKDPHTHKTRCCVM

IC50 (HCT-116 [1]) [µM]	IC50 (SW480 [2]) [µM]	Compound	Activity (SW480 [3])	Activity (HCT-116 [4])	also measured
100	> 100	O=C1NC(=S)S/C1=C\c1ccc(O)c(C(=O)O)c1	inactive	inactive	–
16.9	66.7	O=C1NC(=S)S/C1=C\c1cc(Cl)ccc1Cl	inactive	inactive	IC50 [24]: 26 µM

The remaining lines, values behind:

Compound	IC50 (HCT-116 [1]) [µM]	IC50 (SW480 [2]) [µM]	Activity (SW480 [3])	Activity (HCT-116 [4])	also measured
N#Cc1cc(/C=C2\SC(=S)NC2=O)ccc1F	> 100	31.4	inactive	inactive	–
COc1ccc(-c2cc(=O)c3c(O)cc(O)c(-c4cc(-c5cc(=O)c6c(O)cc(OC)cc6o5)ccc4OC)c3o2)cc1 [SCIADOPITISIN]	–	–	–	–	IC50 [5]: 46.2 µM
COc1cc(O)c2c(=O)cc(-c3ccc(OC)c(-c4c(O)cc(O)c5c(=O)cc(-c6ccc(O)cc6)oc45)c3)oc2c1 [GINKGETIN]	–	–	–	–	IC50 [5]: 25.8 µM
Cn1ccnc1/C=C1\SC(=S)NC1=O	> 100	78.7	inactive	inactive	–
O=C1NC(=S)S/C1=C\c1cc(Cl)ccc1C(F)(F)F	74.8	6.64	–	–	Activity (SW480 [6]): inactive; Activity (SW480 [7]): 2.9%; Activity (SW480 [8]): Active; Activity (SW480 [9]): 4.13%; Activity (SW480 [10]): 1.47%; Activity (SW480 [11]): 11.72%; Activity (SW480 [12]): 5.91%; Activity (SW480 [13]): inactive; Activity (SW480 [14]): 6.23%; Activity (SW480 [15]): 4.77%; Activity (SW480 [16]): Dose-Dependent Effect; Activity (SW480 [17]): Tde; Activity (SW480 [18]): Dose-Dependent Effect; Activity (SW480 [19]): 0.92%; Activity (SW480 [20]): Active; Activity (SW480 [21]): inactive; Activity (SW480 [22]): inactive; Activity (SW480 [23]): Active
O=C1NC(=S)S/C1=C\c1c(F)cc(F)cc1F	16.9	86.1	inactive	inactive	–
